The text below walks through data of PMC10710035 (Breast cancer research and treatment, 2023).

A short description of data set [1]: Plasma pharmacokinetics, cycle 1 day 3. The class given is in vivo, human.
Data set [2] concerns patients. Conditions: cited from earlier work.
Data set [3] deals with early-stage TNBC. Conditions: weekly paclitaxel alone, then AC; 95% PI, 9-43%; cited from earlier work.

Take `N.N.O=C([O-])C1(C(=O)[O-])CCC1.[Pt+2]` [Carboplatin, carboplatin]: in data set [1] (ultrafilterable carboplatin, 20 evaluable patients), the “Cmax and AUC0-∞, impact of veliparib dose” value was “not impacted”. For the molecule `Cn1ncnc1[C@H]1c2n[nH]c(=O)c3cc(F)cc(c23)N[C@@H]1c1ccc(F)cc1` [Talazoparib, talazoparib], the “single agent MTD” value in data set [2] (single agent) is 1000 µg. In addition, the “patients with dose modification” value in data set [2] (talazoparib with carboplatin AUC5-6 and paclitaxel 80 mg/m^2 days 1, 8, 15 of 21-day cycles) is 87-100%. In the case of `CC(=O)O[C@H]1C(=O)[C@@]2(C)[C@H]([C@H](OC(=O)c3ccccc3)[C@]3(O)C[C@H](OC(=O)[C@H](O)[C@@H](NC(=O)c4ccccc4)c4ccccc4)C(C)=C1C3(C)C)[C@]1(OC(C)=O)CO[C@@H]1C[C@@H]2O` [Paclitaxel, paclitaxel], the “exposure (Cmax and AUC0-∞) across veliparib doses” value in data set [1] (human, in vivo) was “not altered”. The “complete pathological response (cPR) rate” value in data set [3] is recorded as 26%.
